Measured values published in ChEMBL document CHEMBL5033996, “Design, Synthesis, and Bioactivity Evaluation of Dual-Target Inhibitors of Tubulin and Src Kinase Guided by Crystal Structure” (J Med Chem, 2021).
pIC50, pKd: −log10 of the molar value.

Tests used:
[1] = Intrinsic clearance in human liver microsomes; type: ADME, Microsome
[2] = AUC (0 to t) in Sprague-Dawley rat at 5 mg/kg, po measured up to 24 hrs by LC/MS/MS analysis; type: ADME, organism-based; design: route oral, dose 5 mg/kg, time <=24; settings: in vivo
Ramos = experiment: Antiproliferative activity against human Ramos cells assessed as inhibition of cell proliferation measured after 72 hrs by MTT assay; type: functional, cell-based
[3] = Half life in human liver microsomes; type: ADME, Microsome
[4] = Clearance in Sprague-Dawley rat at 5 mg/kg, po measured up to 24 hrs by LC/MS/MS analysis; type: ADME, organism-based; settings: in vivo
[5] = target: Proto-oncogene tyrosine-protein kinase Src (Homo sapiens) (UniProt P12931); experiment: Inhibition of Src kinase phosphorylation at Tyr416/419 residue in human SK-OV-3 cells incubated for 24 hrs by Western blot analysis; type: cell-based
Proto-oncogene tyrosine-protein kinase Src (Homo sapiens), sequence (P12931 2-536 limits assumed): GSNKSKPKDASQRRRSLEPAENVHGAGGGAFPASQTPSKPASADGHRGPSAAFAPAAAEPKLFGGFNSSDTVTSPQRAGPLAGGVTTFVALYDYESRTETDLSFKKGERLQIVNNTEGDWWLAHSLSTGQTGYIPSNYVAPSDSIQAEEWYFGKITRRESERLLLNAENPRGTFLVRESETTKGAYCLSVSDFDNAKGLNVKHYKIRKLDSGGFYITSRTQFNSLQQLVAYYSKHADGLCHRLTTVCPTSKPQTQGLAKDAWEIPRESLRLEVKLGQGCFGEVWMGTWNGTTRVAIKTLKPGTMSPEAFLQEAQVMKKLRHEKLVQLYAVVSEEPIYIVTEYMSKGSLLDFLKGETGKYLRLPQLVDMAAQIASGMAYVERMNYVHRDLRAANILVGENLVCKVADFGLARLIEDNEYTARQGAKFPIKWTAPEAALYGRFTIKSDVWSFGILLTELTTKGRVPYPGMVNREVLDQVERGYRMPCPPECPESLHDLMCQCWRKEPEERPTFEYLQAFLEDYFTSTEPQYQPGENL

[6] = Half life in Sprague-Dawley rat at 5 mg/kg, po measured up to 24 hrs by LC/MS/MS analysis; type: ADME, organism-based; settings: in vivo
[7] = Oral bioavailability in Sprague-Dawley rat at 5 mg/kg measured up to 24 hrs by LC/MS/MS analysis; type: ADME, organism-based; settings: in vivo
SK-OV-3 [8] = experiment: Antiproliferative activity against human SK-OV-3 cells assessed as inhibition of cell proliferation measured after 72 hrs by MTT assay; type: functional, cell-based; settings: SK-OV-3, 72 h
[9] = Tmax in Sprague-Dawley rat at 5 mg/kg, po measured up to 24 hrs by LC/MS/MS analysis; type: ADME, organism-based; settings: in vivo
[10] = Toxicity in C57 mouse at 10 mg/kg, po administered twice daily; type: organism-based; settings: in vivo
[11] = Cmax in Sprague-Dawley rat at 5 mg/kg, po measured up to 24 hrs by LC/MS/MS analysis; type: ADME, organism-based; design: route oral, dose 5 mg/kg, time <=24; settings: in vivo
[12] = target: Focal adhesion kinase 1 (Homo sapiens) (UniProt Q05397); experiment: Inhibition of FAK phosphorylation at […] residue in human SK-OV-3 cells incubated for 24 hrs by Western blot analysis; type: cell-based
Focal adhesion kinase 1 (Homo sapiens), sequence (Q05397 2-1052 limits assumed): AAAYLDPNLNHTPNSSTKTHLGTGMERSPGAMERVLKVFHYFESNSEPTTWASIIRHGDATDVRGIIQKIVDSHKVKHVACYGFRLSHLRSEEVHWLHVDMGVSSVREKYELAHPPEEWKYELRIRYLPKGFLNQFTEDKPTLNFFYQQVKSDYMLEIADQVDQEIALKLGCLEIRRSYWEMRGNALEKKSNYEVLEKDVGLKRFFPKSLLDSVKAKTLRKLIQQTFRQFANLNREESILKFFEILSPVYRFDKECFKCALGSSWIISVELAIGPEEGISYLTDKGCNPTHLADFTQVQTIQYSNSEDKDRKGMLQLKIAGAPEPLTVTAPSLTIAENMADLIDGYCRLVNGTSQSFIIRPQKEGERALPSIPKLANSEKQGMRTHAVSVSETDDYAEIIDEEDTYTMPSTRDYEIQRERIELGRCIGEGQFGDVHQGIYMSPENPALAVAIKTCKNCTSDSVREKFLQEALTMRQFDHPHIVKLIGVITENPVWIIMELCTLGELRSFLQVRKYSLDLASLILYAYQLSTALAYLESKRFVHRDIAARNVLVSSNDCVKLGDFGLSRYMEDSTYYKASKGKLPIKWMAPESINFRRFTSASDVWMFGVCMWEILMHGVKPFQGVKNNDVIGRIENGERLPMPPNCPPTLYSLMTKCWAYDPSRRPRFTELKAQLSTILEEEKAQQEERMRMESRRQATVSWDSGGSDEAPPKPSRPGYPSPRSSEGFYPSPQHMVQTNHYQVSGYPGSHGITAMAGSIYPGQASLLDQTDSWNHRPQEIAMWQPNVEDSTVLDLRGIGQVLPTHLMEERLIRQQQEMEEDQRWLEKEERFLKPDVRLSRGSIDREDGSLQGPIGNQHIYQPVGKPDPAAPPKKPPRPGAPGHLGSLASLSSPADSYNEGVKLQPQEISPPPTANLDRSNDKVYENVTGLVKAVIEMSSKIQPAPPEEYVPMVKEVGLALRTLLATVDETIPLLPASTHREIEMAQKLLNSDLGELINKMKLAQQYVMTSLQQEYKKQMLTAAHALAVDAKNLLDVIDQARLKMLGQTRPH

Tubulin = experiment: Binding affinity to tubulin (unknown origin) assessed as dissociation constant by tryptophan based binding assay; type: protein-complex assay, Homo sapiens
K562 = experiment: Antiproliferative activity against human K562 cells assessed as inhibition of cell proliferation measured after 72 hrs by MTT assay; type: functional, cell-based; settings: K562, 72 h
[13] = Toxicity in C57 mouse at 40 mg/kg, po administered twice daily; type: organism-based; settings: in vivo
[14] = Antitumor activity against mouse C26 cells xenografted in BALB/c mouse assessed as tumor growth inhibition at 10 mg/kg, po measured every 2 days for 10 days by vernier caliper analysis relative to control; type: functional; settings: 240 h, time 10 day, read-out: TGI
[15] = Toxicity in BALB/c mouse xenografted with mouse C26 cells assessed as death at 10 mg/kg, po measured every 2 days for 10 days; type: organism-based; settings: in vivo, 240 h, time 10 day
SK-OV-3 [16] = experiment: Induction of cell cycle arrest in human SK-OV-3 cells assessed as accumulation of cells at S phase at 10 nM incubated for 24 hrs by PI staining based flow cytometry analysis (reference value: 21.4 %); type: functional
SK-OV-3 [17] = experiment: Induction of cell cycle arrest in human SK-OV-3 cells assessed as accumulation of cells at G0/G1 phase at 10 nM incubated for 24 hrs by PI staining based flow cytometry analysis (reference value: 49.60 %); type: functional
SK-OV-3 [18] = experiment: Induction of cell cycle arrest in human SK-OV-3 cells assessed as accumulation of cells at G2/M phase at 20 nM incubated for 24 hrs by PI staining based flow cytometry analysis (reference value: 28.94%); type: functional
SK-OV-3 [19] = experiment: Induction of cell cycle arrest in human SK-OV-3 cells assessed as accumulation of cells at G0/G1 phase at 20 nM incubated for 24 hrs by PI staining based flow cytometry analysis (reference value: 49.60 %); type: functional
SK-OV-3 [20] = experiment: Induction of cell cycle arrest in human SK-OV-3 cells assessed as accumulation of cells at G2/M phase at 100 nM incubated for 24 hrs by PI staining based flow cytometry analysis (reference value: 28.94%); type: functional
SK-OV-3 [21] = experiment: Induction of cell cycle arrest in human SK-OV-3 cells assessed as accumulation of cells at G0/G1 phase at 100 nM incubated for 24 hrs by PI staining based flow cytometry analysis (reference value: 49.60 %); type: functional
SK-OV-3 [22] = experiment: Induction of cell cycle arrest in human SK-OV-3 cells assessed as accumulation of cells at S phase at 100 nM incubated for 24 hrs by PI staining based flow cytometry analysis (reference value: 21.4 %); type: functional
SK-OV-3 [23] = experiment: Induction of cell cycle arrest in human SK-OV-3 cells assessed as accumulation of cells at S phase at 20 nM incubated for 24 hrs by PI staining based flow cytometry analysis (reference value: 21.4 %); type: functional
[24] = Toxicity in mouse xenografted with human SK-OV-3 cells assessed as effect on body weight at 10 mg/kg, po administered for 30 days; type: organism-based; settings: in vivo, 720 h, time 30 day
[25] = Antitumor activity against human SK-OV-3 cells xenografted in nude mouse assessed as tumor growth inhibition at 10 mg/kg, po measured every 3 days for 1 month by vernier caliper analysis relative to control; type: functional; settings: SK-OV-3, po, 730 h, time 1 months, read-out: TGI
SK-OV-3 [26] = experiment: Induction of cell cycle arrest in human SK-OV-3 cells assessed as accumulation of cells at G2/M phase at 10 nM incubated for 24 hrs by PI staining based flow cytometry analysis (reference value: 28.94%); type: functional

| SMILES | CLH [1] | AUC(0-t) at 24 h [2] | pIC50 (Ramos) | half-life [3] | CL/F [4] | inhibition [5] | half-life [6] | bioavailability [7] | pIC50 (SK-OV-3 [8]) | Tmax [9] | Cmax [11] | inhibition [12] | pKd (Tubulin) | pIC50 (K562) | inhibition in vivo at 10 mg/kg [14] | also measured |
| --- | --- | --- | --- | --- | --- | --- | --- | --- | --- | --- | --- | --- | --- | --- | --- | --- |
| O=C(Cc1ccc(-c2ccc(OCCN3CCN(C(=O)[C@@H]4C[C@@H]4F)CC3)cc2)cn1)NCc1ccccc1 | 26.6 mL·min/g | 4180 ng·h/mL | 8.80 | 52.1 min | 25.8 mL/min/kg | Dose-Dependent Effect | 305 min | 79.9% | 9.22 | 42 min | 742 ng/mL | Dose-Dependent Effect | 6.52 | 8.85 |  | Activity [10]: Toxic |
| O=C(Cc1ccc(-c2ccc(OCCN3CCN(C(=O)C4CC4)CC3)cc2)cn1)NCc1ccccc1 | 36 mL·min/g | 1620 ng·h/mL | 8.89 | 38.5 min | 55.7 mL/min/kg | Dose-Dependent Effect | 158 min | 52.2% | 8.96 | 49.8 min | 593 ng/mL | Dose-Dependent Effect | 6.54 | 8.60 | 73% | Activity [13]: Non-Toxic; Activity [15]: Toxic |
| O=C(Cc1ccc(-c2ccc(OCCN3CCOCC3)cc2)cn1)NCc1ccccc1 [TIRBANIBULIN] | 31.4 mL·min/g | 840 ng·h/mL | 7.80 | 44.1 min | 88.5 mL/min/kg |  | 740 min | 34.9% | 8.17 | 15 min | 431 ng/mL |  | 5.95 | 7.74 | 51% | Activity (SK-OV-3 [16]): 19.33%; Activity (SK-OV-3 [17]): 46.66%; Activity (SK-OV-3 [18]): 40.35%; Activity (SK-OV-3 [19]): 40.07%; Activity (SK-OV-3 [20]): 64.41%; Activity (SK-OV-3 [21]): 15.39%; Activity (SK-OV-3 [22]): 20.2%; Activity (SK-OV-3 [23]): 19.58%; Activity [24]: Non-Toxic; inhibition in vivo at 10 mg/kg [25]: 42%; Activity (SK-OV-3 [26]): 34.01% |
